Structures can show the parent of a compound that is named as a salt. Where two headings read alike, the source gives them in different places.

This assay deals with T1, Human IP6K1 (Homo sapiens, UniProt Q92551).
T1 construct: GST (N, cleaved yes); made in house; host or cells: C43 E. coli, pGEX-6P-2
The experiment in a line: IP6K1 high-throughput screen of the Sigma LOPAC (ADP-Glo Max, single point).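 Note: final compound concentration 10µM in 5% DMSO.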 In kind it is biochemical. (ADP-Glo first removes unused ATP, then detects ADP through luciferase.)

[1] abbreviates: Sigma LOPAC single-point screen, ADP-Glo Max raw signal per well.
Where [2] appears, read: Sigma LOPAC single-point screen, Z-score from plate average and StDev.
Setting [3] is: LOPAC single-point screen, ADP-Glo Max raw signal per well.
Setting [4] is: LOPAC single-point screen, Z-score against plate average and StDev.
Where [5] appears, read: LOPAC single-point screen, ADP-Glo Max luminescence raw signal per well.
The mark [6] stands for this setting: LOPAC single-point screen, Z-score from plate average and StDev.
[7] abbreviates: LOPAC single-point screen, Z-score from raw signal with plate average and StDev.
[8] abbreviates: LOPAC single-point screen, Z-score relative to plate average and StDev.

T1 sequence (Q92551 whole entry): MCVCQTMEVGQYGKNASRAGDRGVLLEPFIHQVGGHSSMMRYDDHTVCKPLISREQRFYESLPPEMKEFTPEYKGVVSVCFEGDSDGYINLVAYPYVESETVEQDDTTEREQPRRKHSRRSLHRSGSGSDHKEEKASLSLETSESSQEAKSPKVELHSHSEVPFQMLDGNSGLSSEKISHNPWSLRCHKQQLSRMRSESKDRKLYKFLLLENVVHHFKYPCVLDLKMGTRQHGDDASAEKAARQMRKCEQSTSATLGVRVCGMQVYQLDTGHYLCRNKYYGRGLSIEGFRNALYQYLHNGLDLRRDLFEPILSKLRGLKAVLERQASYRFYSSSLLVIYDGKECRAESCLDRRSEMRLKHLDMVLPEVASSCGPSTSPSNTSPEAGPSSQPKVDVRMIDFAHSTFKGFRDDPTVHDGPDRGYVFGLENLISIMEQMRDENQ

In the case of `CC(COc1ccccc1)N(CCCl)Cc1ccccc1` (stereo not drawn) [Phenoxybenzamine hydrochloride], the “Raw Signal” value under setting [1] is given as 61919. Also, the Z-score under setting [2] is recorded as 0.7056.

Turning to `C[N+](C)(C)CCO.[Br-]` [Choline bromide], the “Raw Signal” value was determined as 58990 and the Z-score is reported as 0.1897.

For the compound `O=C(Cc1ccc(Cl)c(Cl)c1)OCCN1CCCC1` [AC 915 oxalate], the “Raw Signal” value under setting [3] is listed as 57662. Moreover, the Z-score under setting [4] is given as -0.04423.

For the compound `CC(/C=C/c1cccc(Oc2ccc(F)cc2)c1)N(O)C(N)=O` (stereo not drawn) [BWB70C], under setting [3], the “Raw Signal” value was found to be 58720. Under setting [4], this compound returned a Z-score of 0.1421.

On to `Cl.Nc1ccn([C@@H]2O[C@H](CO)[C@@H](O)[C@@H]2O)c(=O)n1`, for which the “Raw Signal” value under setting [5] is reported as 65878. The same compound registered a Z-score under setting [6] of 1.403.

On to `COc1cc(CCN)ccc1O.Cl`, for which the “Raw Signal” value under setting [3] came out at 53513. For the same compound, under setting [7], the Z-score is listed as -0.1479.

As for `O=C1C(SCCO)=C(SCCO)C(=O)c2ccccc21` [NSC 95397], under setting [3], the “Raw Signal” value was determined as 55516. Under setting [4], this compound returned a Z-score of 0.07087.

With `CC(N)(Cc1ccc(O)cc1)C(=O)O` (racemic) [DL-alpha-Methyl-p-tyrosine], under setting [5], the “Raw Signal” value is given as 72995. The Z-score under setting [6] is listed as 2.656.

Regarding `CCN(CC)CCCC(C)Nc1c2ccc(Cl)cc2nc2ccc(OC)cc12` (stereo not drawn) [Quinacrine dihydrochloride], under setting [1], the “Raw Signal” value was 60550. Also, the Z-score under setting [2] came out at 0.8794.

Regarding `NC(N)=Nc1nc(CSCCC(N)=NS(N)(=O)=O)cs1` [Famotidine], the “Raw Signal” value under setting [3] is reported as 53127. In addition, the Z-score under setting [7] is reported as -0.4143.

Consider `C=CCN1CC[C@]2(C)c3cc(O)ccc3C[C@H]1[C@H]2C.Cl` [(+)-N-Allylnormetazocine hydrochloride], for which the “Raw Signal” value under setting [5] worked out at 54138. Under setting [8], this compound returned a Z-score of -0.6649.

In the case of `CC(C)c1ccc2c(c1)c(SC(C)(C)C)c(CC(C)(C)C(=O)O)n2Cc1ccc(Cl)cc1` [MK-886], the “Raw Signal” value under setting [3] is 53257. In addition, under setting [7], the Z-score is given as -0.191.

For the compound `CCOC(=O)C1=C(C)NC(C)=C(C(=O)OC)C1c1cccc([N+](=O)[O-])c1` (stereo not drawn) [Nitrendipine], under setting [1], the “Raw Signal” value stood at 58110. The compound also came in with a Z-score under setting [2] of 0.6245.

On to `C[N+](C)(C)CCOP(=O)([O-])OP(=O)([O-])OC[C@H]1O[C@@H](n2ccc(N)nc2=O)[C@H](O)[C@@H]1O.[Na+]` [Citicoline sodium], for which the “Raw Signal” value under setting [1] worked out at 63989. Under setting [2], this compound displayed a Z-score of 1.07.

Regarding `Br.Oc1ccc(C2CNCc3sccc32)cc1O` (stereo not drawn) [SKF 89626], under setting [3], the “Raw Signal” value came out at 56262. In addition, the Z-score under setting [4] stood at 0.04628.

Consider `OC1(c2ccc(Cl)cc2)CCN(Cc2c[nH]c3ccccc23)CC1` [L-741,626], for which the “Raw Signal” value under setting [5] is on record as 51249. Under setting [8], the Z-score is on record as -0.5284.

With `C[C@](N)(CCP(=O)(O)O)C(=O)O.Cl` [(S)-MAP4 hydrochloride], the “Raw Signal” value under setting [3] is recorded as 53240. Moreover, the Z-score under setting [7] is -0.1938.

Turning to `CC1=C(/C=C/C(C)=C/C=C/C(C)=C\C(=O)O)C(C)(C)CCC1` [13-cis-retinoic acid], the “Raw Signal” value under setting [3] was 55954. In addition, the Z-score under setting [4] is -0.01356.

With `CN[C@@H]1C[C@@H](c2ccc(Cl)c(Cl)c2)c2ccccc21` [Indatraline hydrochloride], the “Raw Signal” value under setting [3] is reported as 53926. The Z-score under setting [4] was -0.07855.

On to `CCN(CC)CC#CCOC(=O)C(O)(c1ccccc1)C1CCCCC1` (stereo not drawn) [Oxybutynin Chloride], for which the “Raw Signal” value under setting [3] is 55631. Under setting [4], this compound registered a Z-score of 0.2079.

In the case of `C[C@]12CC[C@@H]3c4ccc(O)cc4CC[C@H]3[C@@H]1CC[C@@H]2O` [beta-Estradiol], the “Raw Signal” value under setting [5] came to 51790. This compound yielded a Z-score under setting [8] of -0.6858.

For the compound `CN(C)C(N)=NCCC[C@H](N)C(=O)O.Cl` [N^G,N^G-Dimethylarginine hydrochloride], under setting [3], the “Raw Signal” value was found to be 52909. The Z-score under setting [7] is reported as -0.4586.

As for `N=C(N)NC(=N)Nc1ccccc1` [1-Phenylbiguanide], under setting [5], the “Raw Signal” value is reported as 52325. This compound also came in with a Z-score under setting [8] of -0.7186.

As for `Oc1ncnc2[nH]ncc12` [Allopurinol], the “Raw Signal” value under setting [3] is recorded as 56130. Under setting [7], this compound came in with a Z-score of -0.3141.

Take `CN(C)c1ccc(O)c2c1C[C@H]1C[C@H]3[C@H](N(C)C)C(O)=C(C(N)=O)C(=O)[C@@]3(O)C(O)=C1C2=O` [Minocycline hydrochloride]: under setting [3], the “Raw Signal” value was determined as 55658. The compound further had a Z-score under setting [4] of 0.2125.

For `O=c1oc(Cl)c(Cl)c2ccccc12` [3,4-Dichloroisocoumarin], the “Raw Signal” value under setting [5] turned out to be 52609. The compound also yielded a Z-score under setting [8] of -0.5195.

Consider `NC(=O)c1cccc(N)c1` [3-aminobenzamide], for which the “Raw Signal” value under setting [3] was found to be 56496. In addition, the Z-score under setting [7] is -0.2496.

Turning to `CC(=N)NCCCC[C@H](N)C(=O)O.Cl` [L-N6-(1-Iminoethyl)lysine hydrochloride], the “Raw Signal” value under setting [3] is 52153. Under setting [7], this compound came in with a Z-score of -0.3765.

Consider (-)-3-Methoxynaltrexone hydrochloride, for which the “Raw Signal” value under setting [3] turned out to be 54969. Under setting [4], this compound gave a Z-score of 0.0967.

Regarding `O=c1[nH]c2cc(Cl)ccc2c(O)c1-c1cccc(Oc2ccccc2)c1` [L-701,324], under setting [5], the “Raw Signal” value amounted to 49431. Under setting [8], this compound yielded a Z-score of -0.8338.

As to `O=C1NCN(c2ccccc2)C12CCN(CC1COc3ccccc3O1)CC2` (stereo not drawn) [Spiroxatrine], the “Raw Signal” value under setting [3] was 55965. The compound further gave a Z-score under setting [4] of -0.01142.

As for `COc1ccc2[nH]c(I)c(CCNC(C)=O)c2c1` [2-Iodomelatonin], under setting [3], the “Raw Signal” value stood at 55940. This compound returned a Z-score under setting [4] of 0.157.

As to S(-)-DS 121 hydrochloride, under setting [3], the “Raw Signal” value is 56472. Under setting [4], this compound registered a Z-score of 0.265.

On to `CCCCCCCCCCCCCCCC(=O)NCCO` [Palmitoylethanolamide], for which, under setting [5], the “Raw Signal” value turned out to be 51451. The compound also displayed a Z-score under setting [8] of -0.4944.

On to `O=c1onc2n1-c1cc(Br)ccc1OC2` [NS 2028], for which the “Raw Signal” value under setting [3] amounted to 54790. For the same compound, under setting [4], the Z-score stood at 0.06662.

Consider `CN1CCN(c2ccc3ccccc3n2)CC1.O=C(O)/C=C\C(=O)O.O=C(O)/C=C\C(=O)O` [Quipazine, N-methyl-, dimaleate], for which the “Raw Signal” value under setting [5] came out at 51627. Moreover, the Z-score under setting [8] is on record as -0.8542.

`O=[N+]([O-])c1cc(O)c(O)c([N+](=O)[O-])c1` [3,5-Dinitrocatechol]: the “Raw Signal” value under setting [3] was 56696. Also, the Z-score under setting [4] worked out at 0.3105.

Turning to `CN(C)CCC=C1c2ccccc2C=Cc2ccccc21` [Cyclobenzaprine hydrochloride], under setting [1], the “Raw Signal” value worked out at 63136. This compound also had a Z-score under setting [2] of 0.9199.

As for `CC(CN(C)C)CN1c2ccccc2CCc2ccccc21` (stereo not drawn) [Trimipramine maleate], the “Raw Signal” value under setting [5] came out at 53117. Further, the Z-score under setting [8] is listed as -0.5647.

Regarding `CN1CCN(CCCN2c3ccccc3Sc3ccc(C(F)(F)F)cc32)CC1` [Trifluoperazine dihydrochloride], the “Raw Signal” value under setting [1] was determined as 58037. Besides, the Z-score under setting [2] was 0.3911.

On to `CCC(=O)N1CCN(C(=O)c2ccccc2)CC1` [DM 235], for which the “Raw Signal” value under setting [3] came to 55630. This compound came in with a Z-score under setting [4] of 0.09402.

As for `C[N+](C)(C)CC=O` [Betaine aldehyde chloride], under setting [3], the “Raw Signal” value was 58689. This compound gave a Z-score under setting [4] of 0.1367.

For the origin of these results see publication PMC5706701, “Development of a homogenous high-throughput assay for inositol hexakisphosphate kinase 1 activity” (PLoS ONE, 2017).
